Key:
CDK4 [1] = assay: 2D gel electrophoresis western blot of CDK4 T172 phosphorylation in MCF-7; assay type: cell-based, human; conditions: MCF-7 cells, 2D SDS-PAGE, spot 3 normalized to spot 1
Description: Serum-synchronized MCF-7 cells were treated with compound according to method outlined. Cells were monitored by eye for cell death and harvested once high-dose cells were round but not detached, about 2 hours. Media was removed and cells washed with HBSS. Trypsin was added to detach cells. Cells were transferred to a falcon tube containing 7 mL of complete DMEM and centrifuged at 1200 rpm for 2 min. Supernatant discarded and pellet gently resuspended in 1 mL PBS and transferred to an Eppendorf tube. Sample was spun once more, after which the pellet was quickly rinsed with ice cold MQ and spun a final time. Pellet was aspirated, flash frozen with LN2, and stored at −80° C.
SCell pellets were solubilized in cold 30 mM Tris buffer pH 8.5 containing 7 M urea, 2 M thiourea and 4% CHAPS with continuous vortexing until unfrozen and then kept agitated for 20 min. After centrifugation at 15,700 g for 10 min at 4° C., proteins were quantified. An equal volume of 2-D-sample buffer (7 M urea, 2 M thiourea, 2% CHAPS, 0.4% 3-10 Pharmalytes, and 0.4% DTT) was added to samples normalized to 150 μg proteins. […] The proteins were detected using Western Lightning Plus ECL (Perkin Elmer) and viewed in Fusion FX gel documentation system using the Solo7S camera (Vilber Lourmat, France).

CDK4 [2] = biological target: CDK4 (Homo sapiens, UniProt P11802); assay: Shotgun proteomics (MS/MS) site of modification on CDK4; assay type: binding; conditions: 50 μM oxaziridine, 30 min, 23° C.
Chain of CDK4 (Homo sapiens, UniProt P11802) (P11802 whole entry): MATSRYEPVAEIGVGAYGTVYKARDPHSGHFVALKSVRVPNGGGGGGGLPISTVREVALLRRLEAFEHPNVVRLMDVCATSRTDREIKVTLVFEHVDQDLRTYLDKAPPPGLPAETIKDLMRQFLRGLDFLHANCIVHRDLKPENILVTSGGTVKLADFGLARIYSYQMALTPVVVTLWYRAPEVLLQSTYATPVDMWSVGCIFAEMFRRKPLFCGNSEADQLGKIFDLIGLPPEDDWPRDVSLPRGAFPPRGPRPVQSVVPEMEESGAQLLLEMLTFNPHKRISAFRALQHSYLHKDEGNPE
Chain of CDK4 (Homo sapiens, UniProt P11802) (P24385 whole entry partner): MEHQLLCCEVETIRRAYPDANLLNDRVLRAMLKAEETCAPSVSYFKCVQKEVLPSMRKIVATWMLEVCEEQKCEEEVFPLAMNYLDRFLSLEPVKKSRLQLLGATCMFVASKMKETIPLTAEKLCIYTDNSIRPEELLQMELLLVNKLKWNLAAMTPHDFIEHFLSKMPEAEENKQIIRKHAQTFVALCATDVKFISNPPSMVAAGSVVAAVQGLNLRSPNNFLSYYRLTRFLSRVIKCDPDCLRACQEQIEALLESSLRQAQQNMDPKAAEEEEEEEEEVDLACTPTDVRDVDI
Description: To more accurately assess residue reactivity of oxaziridines on CDK4, 10 μg of CDK4 was diluted with 90 μg whole cell extract derived from mouse liver to a total volume of 100 μL in PBS. Protein mixture was treated with 50 μM oxaziridine (DMSO) and allowed to incubate at 23° C. for 30 min. Labeled protein was precipitated via addition of 900 μL MeOH at −80° C. overnight. The next day, sample was spun at max speed at 4° C. for 10 min. The pellet was gently washed 3 times with a solution of ice cold MeOH. The supernatant was then removed, and the pellet resuspended in 30 μL freshly prepared 8 M urea/PBS. A 5× stock of ProteaseMAX (Promega; cat no. V2071) was prepared by dissolved the pellet in 100 μL ammonium bicarbonate. To the protein mixture was added 30 μL 1×ProteaseMAX, 40 μL ammonium bicarbonate, and 10 μL of 110 mM freshly prepared TCEP (Pierce; cat no. 20490). […]
Peptides from all experiments were analyzed on a Q Exactive Plus mass spectrometer (Thermo Fisher Scientific); pure proteins were analyzed on a C18 only column, while complex proteomes were analyzed via a five step Multidimensional Protein Identification Technology (MudPIT).^7 In both cases, Inlines (IDEX; cat no.M-520) were fitted with ˜20 cm of 250 μm tubing and prepacked with 4 cm of Aqua C18 reverse-phase resin (Phenomenex; cat no. 04A-4299). […]
Data were analyzed with Byologic (Protein Metrics Inc.). […]

site(s) of modification on CDK4 (CDK4 [2]): M169, with minor labeling at M264
Structure (SMILES): O=C(N1CC2COCC2C1)N1OC1c1ccccc1 (centres unmarked) [Compound 148]
T172 phosphorylation status on CDK4 (CDK4 [1]): diminish T172 phosphorylation status on CDK4 in MCF-7 cells in a dose-dependent manner

From patent US20250206708A1, “AN OXAZIRIDINE PLATFORM FOR TARGETING FUNCTIONAL ALLOSTERIC METHIONINE SITES” (Novartis AG, priority 2022, published 2025)
